Experimental data reported in paper PMC12077799, “Fragment-based drug discovery for transthyretin kinetic stabilisers using a novel capillary zone electrophoresis method” (PLOS One, 2025).
Read-outs that look alike come from different tables or passages of the source.

Columns and labels:
TTR [1] = target: T1, TTR (Homo sapiens, UniProt P02766); assay: Isothermal titration calorimetry (ITC); format: binding
T1 construct: purchased SCIPAC (Sittingbourne, Kent, UK) P171-1
Protocol: All ITC experiments were conducted on an iTC200 calorimeter (GE Healthcare), and the settings were 25 °C, stir at 1000 RPM, 1–2 μL injection spaced with 100–150 seconds, reference power: 6 μcal/sec. Isotherms were fitted using ORIGIN 7 software (OriginLab, MA, USA). To prepare TTR ITC protein solution (5 mL), purified and freeze-dried human TTR was weighted and dissolved in 310 μL of pure water. The reconstituted protein solution was then desalted by spin column (Bio-Rad, Bio-Gel P6) and the eluted volume was transferred to a 15mL falcon tube. The protein solution was further diluted with 10x Phosphate Buffered Saline (PBS, 500 μL), DMSO (150 μL) and water, (f/c: 4.3 mM Na2HPO4, 137 mM NaCl, 2.7 mM KCl, 1.47 mM KH2PO4, 3% DMSO v/v, TTR 19.35–25 μM, pH 7.8). UV A260/280 was measured to obtain the actual protein concentration using a calculated extinction coefficient of 18450 M^-1 cm^-1. To prepare ligand ITC solution (1 mL), 30 μL of ligand stock in DMSO was diluted with 10x PBS (100 μL) and water (f/c: 4.3 mM Na2HPO4, 137 mM NaCl, 2.7 mM KCl, 1.47 mM KH2PO4, 3% DMSO v/v, Ligand 280–600 μM, pH 7.8).

TTR [2] = target: T1, TTR; assay: Induced near-UV circular dichroism of ligand on TTR binding; conditions: induced CD signal 280–320 nm, TTR 13.62 μM
Protocol: CD experiments were conducted in Diamond Light Source (Oxon, UK) beamline B23 installed with an Olis™ DSM 20 CD spectrophotometer. CD Buffer (10 mM Tris-HCl, 5 mM NaCl, pH 8.0) was prepared and loaded (450 μL) into a UV cuvette (10 mm path length). The near-UV (260–380 nm) CD spectrum of the solution was measured. 1 μL of SFL001535 10 mM DMSO stock was added into the cuvette and mixed by inversion. The CD spectrum of this solution was measured again. Contents of the cuvette containing SFL001535 in buffer were removed and the cuvette was washed with nitric acid. CD Buffer containing 13.62 μM of TTR was loaded into the cuvette and the near-UV CD spectrum of TTR was obtained (measured 10 times). A total of 8 μL of SFL001535 10 mM stock was added to the solution in 4 step additions (1 + 1 + 2 + 4 μL) and the CD spectrum were measured after each addition. The induced CD of SFL001535 was calculated by subtracting the CD spectrum of TTR alone.

[3] = target: T2, Human transthyretin (TTR) thyroxine binding sites (Homo sapiens, UniProt P02766); assay: TTR CZE Free Probe Peak Height Restoration (FPPHR) assay, 8-ANS displacement
T2 construct: purchased SCIPAC (Sittingbourne, Kent, UK) P171-1
Protocol: CZE assays development and fragment screening were performed on a Beckman P/ACE MDQ capillary electrophoresis system (Beckman Coulter Inc., Brea, CA) operated by 32 Karat™ software. All capillaries (Polymicro Technologies, Phoenix, AZ) used were internally coated with polyvinyl alcohol and of around 30 cm in length, 75 microns in internal diameter. Capillary temperature was maintained at 20 °C by recirculating fluorinated fluid coolant during electrophoresis. Sample trays and buffer trays temperature were maintained at 4°C and ambient respectively. For every electrophoretic run, the capillary was pressure rinsed and prefilled with electrophoresis buffer also known as background electrolyte (termed as Running Buffer hereafter) before injection. After each electrophoretic run, the capillary was rinsed with Running Buffer and H2O by pressure (20 psi for 1 minute). Three Running Buffers (RB), A: 20 mM Tris pH 7.5, 1 mM KCl, 1.62 mM NaCl; B: 20 mM HEPES pH 7.0, 2 mM CaCl2 and C: 20 mM HEPES pH 7.0, 2 mM CaCl2, 1% DMSO were used. All CE traces were analysed by 32Karat™ Software with a built-in automatic peak integration algorithm.
Control 1 Inject Buffer (IB) containing 30 μM 8-ANS was prepared by mixing 1 μL of 3 mM 8-ANS DMSO stock with 99 μL of Running Buffer B in a 0.2 mL PCR tube. Control 2 Inject Buffer was prepared by mixing 1μL of 3 mM 8-ANS DMSO stock with 20 μL of 100 μM tetrameric TTR stock in Running Buffer B and 79 μL of Running Buffer B. The final concentrations (f/c) were 8-ANS 30 μM, TTR 20 μM and 1% DMSO v/v.
The maximum Free Probe Peak Height (Control 1 Peak Height) was determined by Outlet Injection (see Fig 1) of Control 1 with an injection pressure of 0.5 psi for 5 seconds (equivalent to ≈ 20–30 nL). An identical injection of Control 2 provides the minimum Free Probe Peak Height (Control 2 Peak Height) enabling calculation of % of bound and unbound, i.e., free 8-ANS. To determine the 8-ANS peak height in Control 1 and Control 2, the capillary was prefilled with Buffer C and electrophoresis carried out at 10 kV (Normal Polarity, Fig 1) with UV monitoring at 230 nm. For displacement analysis, ligand DMSO stock was diluted in Buffer B and used to fill the capillary as the Running Buffer. Electrophoresis commenced after injection of Control 2, thus the injected 8-ANS-TTR complex migrates inside a capillary filled with the test ligand. The observed 8-ANS peak height is defined as Sample Peak Height and the displaced 8-ANS can be calculated as:
\% of Free Probe Peak Height Restoration= Sample Peak Height−Control 2 Peak Height/Control 1 Peak Height−Control 2 Peak Height

[4] = target: T3, TTR in undiluted normal human reference plasma (Homo sapiens, UniProt P02766); assay: 125I-T4 displacement assay in neat normal human plasma; format: binding; conditions: neat normal human plasma; 4-parameter logistic fit
T3 construct: The TTR in plasma was immunoprecipitated by sheep anti-human prealbumin polyclonal antibody; tissue Precision Biologic Inc., Nova Scotia, Canada
Description: The assay was adapted from one described previously. Briefly, test ligand and ^125I-T4 (Perkin Elmer Inc., Waltham, MA) were mixed with undiluted normal human reference plasma (Precision Biologic Inc., Nova Scotia, Canada). The TTR in plasma was immunoprecipitated by sheep anti-human prealbumin polyclonal antibody (The Binding Site Group Ltd., Birmingham, UK). The immunoprecipitate was washed with buffer and their radioactivity measured with a 2470 WIZARD automatic gamma counter (Perkin Elmer Inc., Waltham, MA). […] Percentage of total radioligand binding for samples of different ligand concentration was then calculated as follows: […]
To calculate IC50 values, percentage of total radioligand binding at different concentration points were entered in SigmaPlot™ 11.0. Titration curves were done in triplicates with a minimum of 5 data points fitted by 4-Parameter Logistic Function.

[5] = N = number of non-hydrogen atoms

c1ccc2c(-c3cn[nH]c3)ccnc2c1 [SFL001535, 4-(3H-pyrazol-4-yl)quinoline]
Kd (TTR [1]; 25 °C, PBS pH 7.8, 3% DMSO, read-out: ITC Kd1 ± SD (N = 3)): 260 nM
Kd (TTR [1]; 25 °C, PBS pH 7.8, 3% DMSO, read-out: ITC Kd2 ± SD (N = 3)): 1960 nM
Kd (TTR [1]; Fig 8 isotherm, ± standard error of curve fitting, read-out: ITC Kd1 of shown isotherm): 260 ± 88.2 nM
Kd1 LE (Ligand Efficiency, ΔG/N) (TTR [1]; [5]): 0.60 kcal/mol
Kd2 LE (Ligand Efficiency, ΔG/N) (TTR [1]; [5]): 0.52 kcal/mol
binding to TTR by induced CD (TTR [2]): confirmed
FPPHR % tested at 10 µM ([3]; compound 10 µM in Running Buffer, 10% minimum for a binder): 34.10% tested at 10 µM
FPPHR % at 100 μM ([3]; compound 100 μM in Running Buffer, 10% minimum for a binder): 64.23%
inhibition at 50 µM ([3]; read-out: FPPHR % at 50 μM): 60.5%
IC50 [4]: 34500 ± 12400 nM
